In patent US12240811B2, “N-heterocyclic five-membered ring-containing capsid protein assembly inhibitor, pharmaceutical composition and uses thereof” (CHIA TAI TIANQING PHARMACEUTICAL GROUP CO., LTD., priority 2019, dated 2025):

Columns and labels:
[1] = tested on: HBV DNA in HepG2.2.15 cells; test: In vitro cell HBV DNA inhibitory activity in HepG2.2.15 cells; assay type: cell-based; conditions: Hepatitis B virus, 144 h, 6 days treatment, intracellular capsid HBV DNA by qPCR, read-out: EC50, anti-HBV activity in HepG2.2.15 cells
Experimental: A bottle of HepG2.2.15 (Wuhan Institute of Virology) or HepAD38 cells in good exponential growth state was taken, washed once by adding 5 mL PBS, and then thereto was added 3 mL trypsin. After digesting at room temperature for 5 min, 2 mL trypsin was discarded, and then the sample was placed in a cell culture incubator and digested for 10 min. The cells were taken out and observed under a microscope (whether the cells were individually round and there was no adhesion between the cells). 10 mL complete medium was added to terminate the digestion. After pipetting into a single cell suspension, 10 μL of the cell suspension was taken out for cell counting with a cell counter, and then diluted with a complete medium and adjusted to a cell density of 1*10^5 cells/mL. […]
Compounds dissolved in DMSO were subjected to two-fold gradient dilution (10 concentrations in total) with complete medium. […] After lysing at room temperature for 10 min, DNA was extracted, and HBV DNA in the intracellular viral capsid was measured by real-time fluorescence quantitative PCR. The inhibition rate was calculated based on the Ct value, and the EC50 value was calculated by the four-parameter method.

[2] = Stability of liver microsomes in vitro, human; assay type: in vitro ADME
Experimental: (§1) 300 μL of a final incubation system contains 30 μL of liver microsomes (protein concentration: 0.15 mg/mL, Corning), 30 μL NADPH+MgCl2, 3 μL substrate (formulated with acetonitrile), and 237 μL PBS buffer. Duplicate incubation systems of 0.3 mL each were formulated for each species. A total volume of 270 μL of a uniformly mixed solution of the substrate and the enzyme was formulated in each tube, the solution and NADPH were pre-incubated at 37° C. for 5 minutes, respectively. Then 30 μL of the mixed solution of NADPH+MgCl2 was added for reaction. 50 μL of the reaction solution was taken out at 0, 10, 30, and 60 mins, and the reaction was terminated with 300 μL of ice acetonitrile containing an internal standard.
(§2) Sample pre-treatment: To 50 μL of the incubated sample was added 300 μL of ice acetonitrile containing diazepam as an internal standard and then precipitated. After vortexing for 5 minutes, the sample was centrifugated (12000 rpm, 4° C.) for 10 minutes. 75 μL of the supernatant was pipetted into a 96-well plate, and then diluted with 75 μL ultrapure water and mixed uniformly. 0.5 μL of the resulting solution was injected and analyzed by LC-MS/MS.

[3] = Stability of liver microsomes in vitro, rat; assay type: in vitro ADME
Experimental: as §1, §2

[4] = Stability of liver microsomes in vitro, mouse; assay type: in vitro ADME
Experimental: as §1, §2

HBV DNA in serum = test: pAAV/HBV mouse model; assay type: in vivo, C57BL/6 mice; conditions: 3 mpk intragastric once daily
Experimental: 6-8 week old male C57BL/6 mice (Shanghai Lingchang Biotechnology Co., Ltd.) were used, and each mouse was injected with purified recombinant plasmid pAAV/HBV1.2 ([…]) dissolved in PBS equivalent to a volume of about 10% of its body weight through the tail vein within 3-8 s. Blood was collected from the orbits of the mice at 3 days after the plasmid injection to detect serum HBV DNA. The model mice having uniform serum DNA were selected and divided into: a model control group, a vehicle control group, and a test substance group. Mice in each group were continuously administered intragastrically once daily for 10 days at a dose of 3 mg/kg. The mouse serum was taken on day 0, 4, 7, and 10 after the administration, and the mice were sacrificed on day 10 to take liver tissue samples. The HBV DNA copy numbers in serum and liver of the mice were detected by fluorescent quantitative PCR method.

Cc1[nH]c(C(=O)C(=O)N[C@H](C)C(F)(F)F)c(C)c1C(=O)Nc1ccc(F)c(C#N)c1 [Example 2, (R)—N-(3-cyano-4-fluorophenyl)-2,4-dimethyl-5-(2-oxo-2-((1,1,1-trifluoroprop-2-yl)amino)acetyl)-1H-pyrrole-3-carboxamide]
EC50 [1]: 10.7 nM
Remaining (%) of human liver microsomes at 60 min [2]: 100%
Remaining (%) of rat liver microsomes at 60 min [3]: 99%
Remaining (%) of mouse liver microsomes at 60 min [4]: 100%
Reduction levels (log10) of HBV DNA in serum, Day 4 (HBV DNA in serum; Day 4): 2.92 log10
Reduction levels (log10) of HBV DNA in serum, Day 7 (HBV DNA in serum; Day 7): 4.09 log10
Reduction levels (log10) of HBV DNA in serum, Day 10 (HBV DNA in serum; Day 10): 2.42 log10
